The source made the active and inactive calls. No cut-off for these calls is given here.

As a reminder, the Kd is the constant that tells how readily two partners part at equilibrium.

The species entered for assay [1] is Homo sapiens. Nature of the assay: Binding affinity to human recombinant MBP-TMLD (42 to 421 residues) fusion protein expressed in Escherichia coli BL21-AI assessed as change in entropy by isothermal titration calorimetry.
The species entered for assay [2] is Homo sapiens. Nature of the assay: Substrate activity at human recombinant MBP-TMLD (42 to 421 residues) fusion protein expressed in Escherichia coli BL21-AI assessed as hydroxylated substrate formation at 500 uM in presence of alpha-ketoglutarate by proton 1D NMR spectroscopy.
The species entered for assay [3] is Homo sapiens. Nature of the assay: Binding affinity to human recombinant MBP-TMLD (42 to 421 residues) fusion protein expressed in Escherichia coli BL21-AI assessed as change in Gibbs free energy by isothermal titration calorimetry. In general terms: ITC needs no label: the signal is the heat of the interaction.
The species entered for assay [4] is Homo sapiens. Nature of the assay: Binding affinity to human recombinant MBP-TMLD (42 to 421 residues) fusion protein expressed in Escherichia coli BL21-AI assessed as change in enthalpy by isothermal titration calorimetry.
The species named for assay [5] is Homo sapiens. Nature of the assay: Substrate activity at human recombinant MBP-TMLD (42 to 421 residues) fusion protein expressed in Escherichia coli BL21-AI assessed as ratio of succinate to hydroxylated substrate formation at 500 uM in presence of alpha-ketoglutarate by proton 1D NMR spectroscopy.
Assay [6] in a line: Binding affinity to human recombinant MBP-TMLD (42 to 421 residues) fusion protein expressed in Escherichia coli BL21-AI by isothermal titration calorimetry.
The species entered for assay [7] is Homo sapiens. Nature of the assay: Binding affinity to human recombinant MBP-TMLD (42 to 421 residues) fusion protein expressed in Escherichia coli BL21-AI assessed as heat release at 300 uM in presence of co-factor OGA and Zn2+ by isothermal titration calorimetry.
The species named for assay [8] is Homo sapiens. Nature of the assay: Binding affinity to human recombinant MBP-TMLD (42 to 421 residues) fusion protein expressed in Escherichia coli BL21-AI assessed as heat release at 300 uM in presence of co-factor OGA and Co2+ by isothermal titration calorimetry.
Assay [9] is filed under the species Homo sapiens. Nature of the assay: Binding affinity to human recombinant MBP-TMLD (42 to 421 residues) fusion protein expressed in Escherichia coli BL21-AI assessed as heat release at 300 uM in presence of co-factor alpha-ketoglutarate and Zn2+ by isothermal titration calorimetry.
Assay [10] is filed under the species Homo sapiens. Nature of the assay: Binding affinity to human recombinant MBP-TMLD (42 to 421 residues) fusion protein expressed in Escherichia coli BL21-AI in presence of 1.18 to 2 fold excess of co-factor Zn2+/OGA by isothermal titration calorimetry.

Regarding `C[N+](C)(C)CCC[C@H](N)C(=O)O`, the -TdeltaS in the assay listed under Homo sapiens [1] is -2.5 kcal/mol. Also, in the assay filed under Homo sapiens [2], the Activity amounted to 28%. Besides, the deltaG in the assay filed under Homo sapiens [3] is -6.9 kcal/mol. In the assay listed under Homo sapiens [4], the deltaH was -4.5 kcal/mol. In the assay listed under Homo sapiens [5], the Ratio is 3.1. Besides, in assay [6], the Kd amounted to 7.6 µM.

Regarding `CC(C)[N+](C)(C)CCCC[C@H](N)C(=O)O`, the -TdeltaS in the assay listed under Homo sapiens [1] was -1.2 kcal/mol. The Activity in the assay listed under Homo sapiens [2] worked out at 51%. The deltaG in the assay filed under Homo sapiens [3] was -6.75 kcal/mol. Also, the deltaH in the assay listed under Homo sapiens [4] was -5.6 kcal/mol. For the same compound, the Ratio in the assay listed under Homo sapiens [5] stood at 2.4. The Kd in assay [6] came to 11.3 µM.

With `CC(C)C(=O)N[C@@H](CCCC[N+](C)(C)C)C(=O)[O-]`, in the assay filed under Homo sapiens [2], the Activity is 12%. Further, in the assay listed under Homo sapiens [5], the Ratio worked out at 3.9.

With `CCC[N+](C)(C)CCCC[C@H](N)C(=O)O`, the -TdeltaS in the assay filed under Homo sapiens [1] was -5.5 kcal/mol. The Activity in the assay listed under Homo sapiens [2] came to 25%. Also, the deltaG in the assay listed under Homo sapiens [3] is -6.9 kcal/mol. Further, the deltaH in the assay listed under Homo sapiens [4] is -1.4 kcal/mol. In addition, the Ratio in the assay filed under Homo sapiens [5] turned out to be 3.4. Also, the Kd in assay [6] was found to be 9.2 µM.

`C[N+](C)(C)CCCCC[C@H](N)C(=O)O`: in the assay listed under Homo sapiens [1], the -TdeltaS is -4.9 kcal/mol. For the same compound, the Activity in the assay listed under Homo sapiens [2] was determined as 30%. The deltaG in the assay filed under Homo sapiens [3] was -6.28 kcal/mol. For the same compound, the deltaH in the assay listed under Homo sapiens [4] is -1.4 kcal/mol. For the same compound, the Ratio in the assay listed under Homo sapiens [5] came out at 2.9. Also, in assay [6], the Kd worked out at 25 µM.

`C[N+](C)(C)CCCC[C@H](N)C(=O)O`: in the assay listed under Homo sapiens [1], the -TdeltaS was -1.66 kcal/mol. Besides, in the assay listed under Homo sapiens [2], the Activity was 97%. For the same compound, the deltaG in the assay listed under Homo sapiens [3] is -7.15 kcal/mol. The outcome in the assay filed under Homo sapiens [7], in the assay listed under Homo sapiens [8], in the assay listed under Homo sapiens [9] and in the assay listed under Homo sapiens [10] was Active. Also, the deltaH in the assay listed under Homo sapiens [4] was -5.48 kcal/mol. Also, the Ratio in the assay listed under Homo sapiens [5] came out at 1.3. Besides, the Kd in assay [6] was 5.78 µM.

Take `CC[N+](C)(C)CCCC[C@H](N)C(=O)O`: the -TdeltaS in the assay filed under Homo sapiens [1] is -0.75 kcal/mol. The Activity in the assay filed under Homo sapiens [2] was 83%. Moreover, the deltaG in the assay filed under Homo sapiens [3] was -7.12 kcal/mol. In the assay listed under Homo sapiens [4], the deltaH was -6.37 kcal/mol. In addition, the Ratio in the assay filed under Homo sapiens [5] came to 2.1. The Kd in assay [6] came out at 6 µM.

Take `CCCC[N+](C)(C)CCCC[C@H](N)C(=O)[O-]`: the -TdeltaS in the assay listed under Homo sapiens [1] is -5.9 kcal/mol. In addition, the Activity in the assay listed under Homo sapiens [2] was 39%. Besides, the deltaG in the assay listed under Homo sapiens [3] is -6.52 kcal/mol. In addition, the deltaH in the assay listed under Homo sapiens [4] is -0.6 kcal/mol. Further, in the assay listed under Homo sapiens [5], the Ratio is 2.4. Besides, in assay [6], the Kd is 16.4 µM.

The record behind these values is ChEMBL document CHEMBL5113549, “Binding versus Enzymatic Processing of ε-Trimethyllysine Dioxygenase Substrate Analogues” (ACS Med Chem Lett, 2022).
